Data taken from patent US20090269795A1, “Mutant alpha4betadelta GABAA receptor and methods of treating anxiety or irritability” (priority 2007, published 2009).

Key:
Assay in all cases: Whole cell patch clamp of GABA-gated current, recombinant receptors in HEK-293 cells
Conditions in all cases: 30 nM THP
α4β2γ2 receptors = assay type: cell-based, human or mouse α4, rat β2, rat γ2
Text: (§1) Recombinant receptors: Transfection—Plasmids obtained from S. Vicini (rat α1, α5, β2, β3 and γ2), P. Whiting (human α4 and δ) and N. L. Harrison (mouse α4) were propagated in E coli DH5α and prepared using Qiagen Maxi- or Midi-prep kits. (Rat, mouse and human α1, β2, β3 and γ2 subunits are identical or nearly identical.) All receptors were transfected at a 1:1:1 ratio, except α1β2γ2 (1:1:5)^12, α4βδ (5:1:5)^13 and α4β2γ2 (5:1:1). HEK-293 cells were maintained in medium (DMEM:Ham's F-12 1:1) supplemented with 10% fetal calf serum at 37° C. in a humid 5% CO2 atmosphere. Cells were transfected using calcium phosphate or Polyfect (Qiagen) and co-transfected with enhanced green fluorescent protein (ratio of DNA to eGFP was 6:1 or 10:1 depending on the DNA concentration) for visualization. α4-containing GABAA receptors required 2-3 d for maximal levels of expression; all other receptors were recorded 1-2 d after transfection. Because mouse α4 and human α4-containing receptors yielded the same results, the currents were averaged together.
(§2) Whole cell patch clamp recording—GABA-gated currents were recorded at room temperature (20-22° C.) at a holding potential of −50 mV^14. […] Currents were recorded using an Axopatch 1D amplifier (Axon Instruments) filtered at 2 kHz (four-pole Bessel filter) and detected at 10 kHz (pClamp 5.1). […]

α4β2δ GABAA receptors = assay type: cell-based, human or mouse α4, rat β2, human δ
Text: as §1
Whole cell patch clamp recording—GABA-gated currents were recorded at room temperature (20-22° C.) at a holding potential of −50 mV^14. The pipet solution contained (in mM): N-methyl-D-glucamine chloride 120, Cs4BAPTA 5 (Calbiochem), Mg-ATP 5, and an ATP regeneration system (20 mM Tris phosphocreatine and creatine kinase). Internal [Cl^−] or the holding potential were varied, using gluconate as the anion, to alter the direction of Cl^− flow, corrected for the junction potential. In some cases, current-voltage curves were constructed using the peak current response to agonist or agonist+THP across a range of holding potentials (−60 to +60) applied as 10 mV steps, or as a voltage ramp. […] Traces are presented as the average of 3 traces after subtraction of the leak current. […] This rapid application technique yields currents with a rapid rise phase. THP was also bath applied 30 s prior to tests of steroid effects. Currents were recorded using an Axopatch 1D amplifier (Axon Instruments) filtered at 2 kHz (four-pole Bessel filter) and detected at 10 kHz (pClamp 5.1). Analysis of peak current was accomplished with pClamp 9.2 and Origin software (Microcal).
Following the recording, the patch was blown out, and the open tip potential recorded using solutions with a 5% difference in NaCl osmolarity to verify the approximate solution exchange time. The time constant (τ) for desensitization was approximated using non-linear curve fitting routines with Levenburg-Marquardt algorithms (Origin software, Microcal). Goodness of fit was determined by minimizing the sum of the squares of deviations of the theoretical curve from the experimental points.
Recombinant receptors: Human embryonic kidney (HEK)-293 cells were transfected with α4 β2δ or other indicated subunit combinations (see Supplementary Methods) and co-transfected with enhanced green fluorescent protein for visualization. GABA-gated currents were recorded at room temperature (20-22° C.) at a holding potential of −50 mV^17 using a pipet solution containing 120 mM: N-methyl-D-glucamine chloride. Internal [Cl^−] or the holding potential were varied to alter the direction of Cl^− flow. […] Currents were recorded using an Axopatch 1D amplifier (Axon Instruments) filtered at 2 kHz (four-pole Bessel filter), detected at 10 kHz and analyzed with pClamp 9.2. Desensitization rate was determined using non-linear curve-fitting routines (Origin, Microcal; see next section).
Further Studies with Recombinant receptors: Transfection—Plasmids obtained from S. Vicini (rat α1, α5, β2, β3 and y2), P. Whiting (human α4 and 6) and N. L. Harrison (mouse α4) were propagated in E coli DH5α and prepared using Qiagen Maxi- or Midi-prep kits. (Rat, mouse and human α1, β2, β3 and γ2 subunits are identical or nearly identical.) All receptors were transfected at a 1:1:1 ratio, except a132γ2 (1:1:5)^12, α4β28 (5:1:5)^13 and α4β2γ2 (5:1:1). […]

α1β2δ receptors = molecular target: T1, α1β2δ receptors (Rattus norvegicus, UniProt P62813+P63138); assay type: cell-based, rat α1, rat β2, human δ
T1 construct: expressed in transfected cells; host or cells: HEK-293
T1 sequence (P62813 28-455): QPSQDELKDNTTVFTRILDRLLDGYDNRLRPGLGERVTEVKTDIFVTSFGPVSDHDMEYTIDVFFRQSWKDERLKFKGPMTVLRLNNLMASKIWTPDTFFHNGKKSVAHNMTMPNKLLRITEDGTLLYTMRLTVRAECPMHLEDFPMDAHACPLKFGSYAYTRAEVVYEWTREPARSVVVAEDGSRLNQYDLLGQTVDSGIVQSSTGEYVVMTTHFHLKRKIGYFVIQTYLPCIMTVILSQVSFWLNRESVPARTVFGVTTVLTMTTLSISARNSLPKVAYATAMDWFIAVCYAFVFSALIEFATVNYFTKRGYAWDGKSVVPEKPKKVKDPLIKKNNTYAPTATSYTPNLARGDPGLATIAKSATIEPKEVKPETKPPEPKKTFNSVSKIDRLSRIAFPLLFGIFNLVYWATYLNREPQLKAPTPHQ
T1 sequence (P63138 25-474 limits assumed): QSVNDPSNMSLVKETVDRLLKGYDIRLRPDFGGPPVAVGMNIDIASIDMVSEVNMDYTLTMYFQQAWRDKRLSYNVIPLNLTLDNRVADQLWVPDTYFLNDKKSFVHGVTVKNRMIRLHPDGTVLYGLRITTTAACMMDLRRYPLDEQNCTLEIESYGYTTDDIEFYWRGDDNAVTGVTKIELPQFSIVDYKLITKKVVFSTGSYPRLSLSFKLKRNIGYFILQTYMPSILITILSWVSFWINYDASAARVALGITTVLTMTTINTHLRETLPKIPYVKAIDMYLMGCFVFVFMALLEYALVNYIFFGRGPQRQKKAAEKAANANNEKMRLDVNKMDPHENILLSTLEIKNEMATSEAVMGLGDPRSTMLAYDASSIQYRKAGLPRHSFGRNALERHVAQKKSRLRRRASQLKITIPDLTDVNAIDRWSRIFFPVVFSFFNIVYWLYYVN
T1 sequence (O14764 25-452 partner): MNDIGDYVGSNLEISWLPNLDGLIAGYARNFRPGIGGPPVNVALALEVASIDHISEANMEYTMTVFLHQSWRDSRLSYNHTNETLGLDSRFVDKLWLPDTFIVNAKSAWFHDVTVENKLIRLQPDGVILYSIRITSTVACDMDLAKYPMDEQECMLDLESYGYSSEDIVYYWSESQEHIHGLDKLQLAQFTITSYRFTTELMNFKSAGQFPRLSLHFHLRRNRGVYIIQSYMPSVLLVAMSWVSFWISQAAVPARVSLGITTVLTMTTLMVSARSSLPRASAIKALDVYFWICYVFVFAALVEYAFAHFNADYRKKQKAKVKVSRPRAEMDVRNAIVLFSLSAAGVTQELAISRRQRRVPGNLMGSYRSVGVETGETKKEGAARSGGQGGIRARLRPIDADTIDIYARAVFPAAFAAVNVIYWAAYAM
Text: as §1, §2

## CC(=O)[C@H]1CC[C@H]2[C@@H]3CC[C@H]4C[C@H](O)CC[C@]4(C)[C@H]3CC[C@]12C [THP, 3α-OH-5α[β]-pregnan-20-one]
α4β2γ2 receptors
  effect on outward current: either increased or had no effect
α4β2δ GABAA receptors
  effect on Cl− reversal potential: did not itself alter the Cl^− reversal potential
α4β2δ GABAA receptors; no GABA
  effect applied without GABA: had no effect
α4β2δ GABAA receptors; 20 nM GABA
  effect on outward current gated by 20 nM GABA: potentiated
α4β2δ GABAA receptors; 1 μM GABA
  effect on inward currents: robustly increased inward currents
α4β2δ GABAA receptors; 1 μM GABA, −50 mV, mean±SEM
  decrease of outward GABA-gated Cl− current: 28±3%
α4β2δ GABAA receptors; 100 μM GABA
  effect on peak current: unchanged
α4β2δ GABAA receptors; 100 μM GABA for 2 s, pre-THP 8±2%
  desensitization of outward currents: 87±5.6%
α4β2δ GABAA receptors; 100 μM GABA, pre-THP 1700±200 ms
  time constant (τ) of desensitization: 230 ± 35 ms
α4β2δ GABAA receptors; across a range of voltage steps
  decrease of conductance of the outward current: 36-43%
α1β2δ receptors
  effect on outward current: either increased or had no effect
